51 compounds from US20090298825A1, “Bicycloheteroaryl Compounds as P2x7 Modulators and Uses Thereof” (priority 2006, published 2009) can be followed below.

For the test, the target named is T1, P2X7 receptor (Homo sapiens, UniProt Q99572).
T1 construct: endogenous in cells; host or cells: THP-1 cells differentiated with LPS and IFN-γ
T1 sequence (Q99572 1-595): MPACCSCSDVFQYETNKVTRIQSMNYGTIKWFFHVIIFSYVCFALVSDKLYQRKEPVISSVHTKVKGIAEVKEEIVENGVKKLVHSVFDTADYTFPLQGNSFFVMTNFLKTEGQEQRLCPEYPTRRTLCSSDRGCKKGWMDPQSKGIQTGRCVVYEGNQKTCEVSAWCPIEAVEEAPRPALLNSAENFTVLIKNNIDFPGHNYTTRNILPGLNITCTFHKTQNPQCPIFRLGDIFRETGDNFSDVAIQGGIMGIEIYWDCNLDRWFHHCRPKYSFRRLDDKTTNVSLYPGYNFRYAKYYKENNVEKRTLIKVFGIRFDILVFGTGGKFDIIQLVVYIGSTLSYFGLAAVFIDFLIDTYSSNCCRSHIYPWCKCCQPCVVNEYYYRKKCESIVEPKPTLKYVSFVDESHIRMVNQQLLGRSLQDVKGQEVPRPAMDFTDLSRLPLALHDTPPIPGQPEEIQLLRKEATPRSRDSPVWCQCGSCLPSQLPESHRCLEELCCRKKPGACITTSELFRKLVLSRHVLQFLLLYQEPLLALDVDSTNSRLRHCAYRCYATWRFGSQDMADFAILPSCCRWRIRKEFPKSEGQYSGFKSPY
Kind of test: IL-1β release assay in differentiated THP-1 cells stimulated with BzATP (Example 9). The test is classed as cell-based. The conditions noted are these: for inhibition at 0.3 µM: 0.3 μM concentration; for inhibition at 0.3 µM / inhibition at 0.1 µM: read-out: IL-1β % Inhib. @ 0.3 or 0.1 μM; for IC50: four parameter logistic fit, read-out: IL-1β IC50; for inhibition at 0.1 µM: 0.1 μM concentration. Here is the method: The cells are then pretreated for 30 minutes with the compound of interest at the appropriate concentration in RPMI media containing 100 IU/mL penicillin, 100 ug/mL streptomycin. […] 30 uL of cell supernatant is then collected and IL-1β levels determined via ELISA (R&D systems Cat. # HSLB50) according to manufacturer's recommendations using the Tecan Safire plate reader. Background adjusted IL-1β levels of drug treated and non-treated cells are used to calculate the percent inhibition.
The compounds set forth in Table 1 were tested for activity in a cellular model as described herein. […] Measurements were made and IC50 values, presented in Table 2, below, were determined by fitting the data to a four parameter logistic equation using GraphPad Prism software (GraphPad Software, Inc). The equation may be expressed by the following formula:
Y=Bottom+(Top-Bottom)/(1+10̂((Log EC50−X)*HillSlope))
Where X is the logarithm of concentration, Y is the response and Y starts at Bottom and goes to Top with a sigmoid shape.

One may read the IC50 as the concentration that gives 50% inhibition. Take `O=C(Cc1ccc(C(F)(F)F)cc1F)Nc1cccc2c(=O)n(C3CCC3)ccc12` [ID 887]: the inhibition at 0.3 µM is greater than 76% and the IC50 was determined as 28.5 nM.
Regarding `CCOC(=O)N1CCC(n2ccc3c(NC(=O)CCc4ccc(OC)cc4)cccc3c2=O)CC1` [ID 776], the inhibition at 0.1 µM lay within 0 to 25%.
In the case of `CC(C(=O)Nc1cccc2c(=O)n(-c3n[nH]cc3C#N)ccc12)c1ccc(Cl)c(C(F)(F)F)c1` (centres unmarked) [ID 840], the inhibition at 0.3 µM is greater than 76% and the IC50 was found to be 37.6 nM.
For `CC(C(=O)Nc1cccc2c(=O)n(C3CCNC3)ccc12)c1ccc(Cl)c(Cl)c1` (centres unmarked) [ID 831], in that order: 51 to 75% and 154 nM.
Consider `CCOC(=O)N1CCC(n2ccc3c(NC(=O)c4ccc(-c5ccccc5)o4)cccc3c2=O)CC1` [ID 752], for which the inhibition at 0.1 µM fell in the range of 0 to 25%.
With `O=C(CC12CC3CC(CC(C3)C1)C2)Nc1cccc2c(=O)n(-c3cccnc3N3CCOCC3)ccc12` [ID 712], the inhibition at 0.3 µM is greater than 76% and the IC50 worked out at 0.384 nM.
In the case of `CCOC(=O)N1CCC(n2ccc3c(NC(=O)c4ccc(C(C)(C)C)cc4)cccc3c2=O)CC1` [ID 773], the inhibition at 0.1 µM lay in the range of 26 to 50%.
Take `O=C(CC12CC3CC(CC(C3)C1)C2)Nc1cccc2c(=O)n(-c3ccc(Oc4ccccc4)nc3)ccc12` [ID 711]: the inhibition at 0.3 µM is greater than 76% and the IC50 was 0.723 nM.
In the case of `CCOC(=O)N1CCC(n2ccc3c(NC(=O)Cc4ccc(OC)cc4)cccc3c2=O)CC1` [ID 785], the inhibition at 0.1 µM is 0 to 25%.
For the compound `Cc1cc(-n2ccc3c(NC(=O)CC4CC5CCC4C5)cccc3c2=O)no1` (centres unmarked) [ID 735], the inhibition at 0.1 µM is greater than 76%.
Consider `Cc1ncccc1-n1ccc2c(NC(=O)Cc3ccc(C(F)(F)F)cc3)cccc2c1=O` [ID 851], for which the inhibition at 0.3 µM was greater than 76% and the IC50 is 147 nM.
On to `Cc1ccc(-n2ccc3c(NC(=O)CC45CC6CC(CC(C6)C4)C5)cccc3c2=O)c(C)n1` [ID 703], for which the inhibition at 0.3 µM was greater than 76% and the IC50 stood at 13.2 nM.
As to `CCOC(=O)N1CCC(n2ccc3c(NC(=O)Cc4cccc(OC)c4)cccc3c2=O)CC1` [ID 782], the inhibition at 0.1 µM is 0 to 25%.
On to `Cc1ncccc1-n1ccc2c(NC(=O)Cc3ccc(Cl)c(Cl)c3)cccc2c1=O` [ID 869], for which the inhibition at 0.3 µM was greater than 76% and the IC50 was found to be 43.9 nM.
As to `Cc1ccc2c(=O)n([C@H]3CCNC3)ccc2c1NC(=O)Cc1ccc(C(F)(F)F)c(F)c1` [ID 900], the inhibition at 0.3 µM was greater than 76% and the IC50 is 40.2 nM.
For the compound `Cc1cc(-n2ccc3c(NC(=O)Cc4ccccc4F)cccc3c2=O)no1` [ID 726], the inhibition at 0.1 µM was in the range of 0 to 25%.
In the case of `CCOC(=O)N1CCC(n2ccc3c(NC(=O)Cc4ccc5c(c4)OCO5)cccc3c2=O)CC1` [ID 790], the inhibition at 0.1 µM lay within 0 to 25%.
As to `CCOC(=O)N1CCC(n2ccc3c(NC(=O)Cc4ccc(OC)cc4OC)cccc3c2=O)CC1` [ID 804], the inhibition at 0.1 µM was 0 to 25%.
Turning to `Cc1ncccc1-n1ccc2c(NC(=O)Cc3ccc(C(F)(F)F)cc3C(F)(F)F)cccc2c1=O` [ID 868], the inhibition at 0.3 µM was greater than 76% and the IC50 was found to be 68.7 nM.
For the compound `CCOC(=O)N1CCC(n2ccc3c(NC(=O)c4cccc(C)c4Cl)cccc3c2=O)CC1` [ID 808], the inhibition at 0.1 µM lay within 0 to 25%.
The same measure, in the same setting: the same measure for `Cc1cc(-n2ccc3c(NC(=O)c4ccccc4C)cccc3c2=O)no1` [ID 720]: 0 to 25%.
As to `Cc1ccncc1-n1ccc2c(NC(=O)Cc3ccc(C(F)(F)F)c(F)c3)cccc2c1=O` [ID 856], the inhibition at 0.3 µM is greater than 76% and the IC50 was determined as 129 nM.
For `Cc1ccc(Oc2ncccc2-n2ccc3c(NC(=O)CC45CC6CC(CC(C6)C4)C5)cccc3c2=O)c2c1CCC2` [ID 708], in that order: greater than 76% and 26.2 nM.
`Cc1cc(-n2ccc3c(NC(=O)c4cccc5c4OCCO5)cccc3c2=O)no1` [ID 736]: the inhibition at 0.1 µM was in the range of 0 to 25%.
For the compound `O=C(CC12CC3CC(CC(C3)C1)C2)Nc1cccc2c(=O)n(-c3ccc(Oc4c(Cl)cccc4Cl)nc3)ccc12` [ID 713], the inhibition at 0.3 µM is greater than 76% and the IC50 stood at 10.7 nM.
On to `CC(C(=O)Nc1cccc2c(=O)n(-c3cccnc3F)ccc12)c1cccc(C(F)(F)F)c1F` (centres unmarked) [ID 875], for which the inhibition at 0.3 µM is greater than 76% and the IC50 came to 8.32 nM.
Take `O=C(CC12CC3CC(CC(C3)C1)C2)Nc1cccc2c(=O)n(-c3ccc(Oc4ccc(Br)cc4)nc3)ccc12` [ID 704]: the inhibition at 0.3 µM was greater than 76% and the IC50 amounted to 0.322 nM.
`O=C(CC12CC3CC(CC(C3)C1)C2)Nc1cccc2c(=O)n(-c3ccc(Sc4cc(Cl)ccc4Cl)nc3)ccc12` [ID 707]: the inhibition at 0.3 µM is greater than 76% and the IC50 turned out to be 1.63 nM.
Consider `O=C(Cc1ccc(Cl)c(C(F)(F)F)c1)Nc1cccc2c(=O)n(-c3cccnc3F)ccc12` [ID 870], for which the inhibition at 0.3 µM is greater than 76% and the IC50 turned out to be 4.97 nM.
For the compound `CCOC(=O)N1CCC(n2ccc3c(NC(=O)c4cccc(C)c4)cccc3c2=O)CC1` [ID 770], the inhibition at 0.1 µM was in the range of 0 to 25%.
Consider `O=C(CC1CCCCCC1)Nc1cccc2c(=O)n(C3CC3)ccc12` [ID 878], for which the inhibition at 0.3 µM was greater than 76% and the IC50 was determined as 2.21 nM.
Take `CCOC(=O)N1CCC(n2ccc3c(NC(=O)CCc4ccccc4Cl)cccc3c2=O)CC1` [ID 758]: the inhibition at 0.1 µM was in the range of 0 to 25%.
As for `O=C(Cc1ccc(C(F)(F)F)cc1)Nc1cccc2c(=O)n(C3CC3)ccc12` [ID 877], the inhibition at 0.3 µM is greater than 76% and the half-maximal inhibitory concentration (IC50) came to 23.7 nM.
For `Cc1cc(C)cc(CC(=O)Nc2cccc3c(=O)n(-c4cc(C)on4)ccc23)c1` [ID 737], the inhibition at 0.1 µM lay in the range of 0 to 25%.
For the compound `CCOC(=O)N1CCC(n2ccc3c(NC(=O)Cc4ccc(C)cc4)cccc3c2=O)CC1` [ID 787], the inhibition at 0.1 µM lay within 0 to 25%.
For the compound `O=C(CC12CC3CC(CC(C3)C1)C2)Nc1cccc2c(=O)n(-c3cnc4ccccc4c3)ccc12` [ID 706], the inhibition at 0.3 µM was greater than 76% and the IC50 turned out to be 58 nM.
In the case of `O=C(Cc1ccc(Cl)c(C(F)(F)F)c1)Nc1cccc2c(=O)n(C3CCNCC3)ccc12` [ID 818], the inhibition at 0.3 µM was greater than 76% and the IC50 came to 99 nM.
Take `CCOC(=O)N1CCC(n2ccc3c(NC(=O)Cc4ccc(OC)c(C)c4)cccc3c2=O)CC1` [ID 806]: the inhibition at 0.1 µM fell in the range of 0 to 25%.
As to `O=C(CC1CCCCCC1)Nc1cccc2c(=O)n([C@H]3CCNC3)ccc12` [ID 824], the inhibition at 0.3 µM was greater than 76% and the IC50 was 3.2 nM.
For `O=C(Cc1ccc(Cl)c(C(F)(F)F)c1)Nc1cccc2c(=O)n(C3CCC3)ccc12` [ID 899], in that order: greater than 76% and 6.19 nM.
As to `O=C(CC12CC3CC(CC(C3)C1)C2)Nc1cccc2c(=O)n(-c3cc[nH]n3)ccc12` [ID 841], the inhibition at 0.3 µM was greater than 76% and the IC50 was determined as 0.295 nM.
`CCOC(=O)N1CCC(n2ccc3c(NC(=O)Cc4cc(C)ccc4C)cccc3c2=O)CC1` [ID 755]: the inhibition at 0.1 µM lay in the range of 0 to 25%.
For `COc1ccc(CC(=O)Nc2cccc3c(=O)n(-c4cc(C)on4)ccc23)cc1C` [ID 741], the inhibition at 0.1 µM lay in the range of 0 to 25%.
Take `Cc1ccc(CC(=O)Nc2cccc3c(=O)n(-c4cc(C)on4)ccc23)cc1` [ID 733]: the inhibition at 0.1 µM fell in the range of 0 to 25%.
For `CCOC(=O)N1CCC(n2ccc3c(NC(=O)c4cc(Cl)ccc4Cl)cccc3c2=O)CC1` [ID 763], the inhibition at 0.1 µM was in the range of 0 to 25%.
Still for that read-out and setting: as for `Cc1cc(-n2ccc3c(NC(=O)CCc4ccccc4Cl)cccc3c2=O)no1` [ID 718], the figure is 0 to 25%.
For the compound `C[C@H](C(=O)Nc1cccc2c(=O)n(C3CC3)ccc12)c1ccc(Cl)cc1` [ID 894], the inhibition at 0.3 µM was greater than 76% and the IC50 stood at 31.9 nM.
For `O=C(CC12CC3CC(CC(C3)C1)C2)Nc1cccc2c(=O)n(-c3cccnc3Oc3ccccc3F)ccc12` [ID 714], in that order: greater than 76% and 4.09 nM.
Consider `O=C(Cc1cccc(C(F)(F)F)c1F)Nc1cccc2c(=O)n(-c3cccnc3F)ccc12` [ID 874], for which the inhibition at 0.3 µM was greater than 76% and the half-maximal inhibitory concentration (IC50) amounted to 27.9 nM.
For `Cc1ncccc1-n1ccc2c(NC(=O)Cc3cc(F)c(F)c(F)c3)cccc2c1=O` [ID 866], in that order: 51 to 75% and 98.5 nM.
For `CC(C(=O)Nc1cccc2c(=O)n(-c3cc[nH]n3)ccc12)c1ccc(Cl)c(C(F)(F)F)c1` (centres unmarked) [ID 839], in that order: greater than 76% and 14.1 nM.
